Data set [1] is described as follows: Lipophilicity HPLC determination (capacity factor k / log k). Conditions: RP-HPLC, C18 column, MeOH 55.0% / H2O 45.0%, isocratic. Type of data set: physicochemical. The method, then: Hydrophobicities (log P/Clog P values) of the compounds 1-12 were calculated using two commercially available programs and also measured by means of the reversed phase high performance liquid chromatography (RP-HPLC) method for lipophilicity measurement. The procedure was performed under isocratic conditions with methanol as an organic modifier in the mobile phase using an end-capped non-polar C18 stationary RP column. The capacity factors k were determined and subsequent log k values were calculated.
The HPLC separation module Waters Alliance 2695 XE and Waters Photodiode Array Detector 2996 (Waters Corp., Milford, MA, U.S.A.) were used. A Symmetry® C18 5 μm, 4.6 × 250 mm, Part No. WAT054275, (Waters Corp., Milford, MA, U.S.A.) chromatographic column was used. The HPLC separation process was monitored by Millennium32® Chromatography Manager Software, Waters 2004 (Waters Corp., Milford, MA, U.S.A.). The mixture of MeOH p.a. (55.0%) and H2O-HPLC – Mili-Q Grade (45.0%) was used as a mobile phase. The total flow of the column was 0.9 mL/min, injection 30 μL, column temperature 30 °C and sample temperature 10 °C. The detection wavelength 210 nm was chosen. The KI methanolic solution was used for the dead time (TD) determination. Retention times (tR) were measured in minutes. The capacity factors k were calculated using the Millennium32® Chromatography Manager Software according to formula k = (tR - tD) / tD, where tR is the retention time of the solute, whereas tD denotes the dead time obtained via an unretained analyte. Log k, calculated from the capacity factor k, is used as the lipophilicity index converted to log P scale.

In the next data set the test system is spinach chloroplasts. The data set can be described thus: Inhibition of oxygen evolution rate (OER) / photosynthetic electron transport in spinach chloroplasts. It is filed as biochemical, Spinacia oleracea L. The settings on record: for IC50: DCPIP photoreduction, pH 7.2. As for the experimental part:
Chloroplasts were prepared from spinach (Spinacia oleracea L.) according to Masarovicova and Kralova. The inhibition of photosynthetic electron transport (PET) in spinach chloroplasts was determined spectrophotometrically (Genesys 6, Thermo Scientific, U.S.A.) using an artificial electron acceptor 2,6-dichlorophenol-indophenol (DCPIP) according to Kralova et al. and the rate of photosynthetic electron transport was monitored as a photoreduction of DCPIP. The measurements were carried out in phosphate buffer (0.02 mol/L, pH 7.2) containing sucrose (0.4 mol/L), MgCl2 (0.005 mol/L) and NaCl (0.015 mol/L). The chlorophyll content was 30 mg/L in these experiments and the samples were irradiated (~100 W/m^2) from 10 cm distance with a halogen lamp (250 W) using a 4 cm water filter to prevent warming of the samples (suspension temperature 22 °C). The studied compounds were dissolved in DMSO due to their limited water solubility. […] The inhibitory efficiency of the studied compounds was expressed by IC50 values, i.e. by molar concentration of the compounds causing 50% decrease in the oxygen evolution rate relative to the untreated control.

Another data set concerns Absidia corymbifera 272. The data set can be described thus: In vitro antifungal broth microdilution test. Type of data set: cell-based. Conditions: Lichtheimia corymbifera, 272, RPMI 1640, pH 7.0, 35 °C, read-out: MIC/IC80 AC. The method, then: (§1) Fluconazole (FLU) was used as the standard of a clinically used antimycotic drug. The procedure was performed with twofold dilution of the compounds in […]., Prague, Czech Republic) buffered to pH 7.0 with 0.165 mol of 3-morpholino-propane-1-sulfonic acid (MOPS, Sigma, Germany). […] Drug-free controls were included. The MIC was defined as an 80% or greater (IC80) reduction of growth in comparison with the control.

Data set [2] deals with Aspergillus fumigatus 231. The data set can be described thus: In vitro antifungal broth microdilution test. Conditions: Aspergillus fumigatus, 231, RPMI 1640, pH 7.0, 35 °C, read-out: MIC/IC80 AF. It is filed as cell-based. The method, then:
as §1

In data set [3] the test system is Candida albicans ATCC 44859. Description: In vitro antifungal broth microdilution test. Type of data set: cell-based. Conditions: Candida albicans, ATCC44859, RPMI 1640, pH 7.0, 35 °C, read-out: MIC/IC80 CA. As for the experimental part: as §1
For the next data set, the system named is Candida glabrata 20/I. The data set can be described thus: In vitro antifungal broth microdilution test. Type of data set: cell-based. The settings on record: Nakaseomyces glabratus, 20/I, RPMI 1640, pH 7.0, 35 °C, read-out: MIC/IC80 CG. As for the experimental part:
as §1

The next data set concerns Candida krusei ATCC 6258. Description: In vitro antifungal broth microdilution test. It is filed as cell-based. The settings on record: Pichia kudriavzevii, ATCC6258, RPMI 1640, pH 7.0, 35 °C, read-out: MIC/IC80 CK. The method, then:
as §1

The subject of another data set is Candida tropicalis 156. The data set can be described thus: In vitro antifungal broth microdilution test. It is filed as cell-based. Conditions: Candida tropicalis, 156, RPMI 1640, pH 7.0, 35 °C, read-out: MIC/IC80 CT. The method, then:
as §1

The subject of data set [4] is Trichophyton mentagrophytes 445. Description: In vitro antifungal broth microdilution test. Type of data set: cell-based. The settings on record: Trichophyton mentagrophytes, 445, RPMI 1640, pH 7.0, 35 °C, read-out: MIC/IC80 TM. As for the experimental part: as §1
In data set [5] the test system is Trichosporon beigelii 1188. Description: In vitro antifungal broth microdilution test. It is filed as cell-based. The settings on record: Trichosporon beigelii, 1188, RPMI 1640, pH 7.0, 35 °C, read-out: MIC/IC80 TB. The method, then:
The broth microdilution test was used for the assessment of in vitro antifungal activity of the synthesized compounds against Candida albicans ATCC 44859 (CA), Candida tropicalis 156 (CT), Candida krusei ATCC 6258 (CK), Candida glabrata 20/I (CG), Trichosporon beigelii 1188 (TB), Aspergillus fumigatus 231 (AF), Absidia corymbifera 272 (AC), and Trichophyton mentagrophytes 445 (TM). Fluconazole (FLU) was used as the standard of a clinically used antimycotic drug. The procedure was performed with twofold dilution of the compounds in RPMI 1640 (Sevapharma a.s., Prague, Czech Republic) buffered to pH 7.0 with 0.165 mol of 3-morpholino-propane-1-sulfonic acid (MOPS, Sigma, Germany). The final concentrations of the compounds ranged from 500 to 0.975 μmol/l. Drug–free controls were included. The MIC was defined as an 80% or greater (IC80) reduction of growth in comparison with the control. The values of MICs were determined after 24 and 48 h of static incubation at 35 °C. For T. mentagrophytes, the final MICs were determined after 72 and 120 h of incubation.

Read-outs that look alike come from different tables or passages of the source.

`Nc1c(O)c2ccccc2[nH]c1=O` [Compound 6, 3-Amino-4-hydroxyquinolin-2(1H)-one] yielded a log k in data set [1] of 0.0004. The same molecule yielded an IC50 in the data set on spinach chloroplasts of 775 µM. The MIC (with Absidia corymbifera 272 (24h); with Absidia corymbifera 272 (48h); in [2] (24h); in [2] (48h); in data set [3] (24h); in data set [3] (48h)) was above 500 µM in each case. Besides, the MIC in the data set on Candida glabrata 20/I (24h), with Candida glabrata 20/I (48h), with Candida krusei ATCC 6258 (24h), in the data set with Candida krusei ATCC 6258 (48h), in the data set with Candida tropicalis 156 (24h) and in the data set with Candida tropicalis 156 (48h) was above 500 µM in each case. In addition, the MIC in data set [4] (72h), in data set [4] (120h), in [5] (24h) and in [5] (48h) was above 500 µM each time.

Take `O=C(O)c1ccc(NC(=O)c2c(O)c3cc(C(=O)O)ccc3[nH]c2=O)cc1` [Compound 11, 3-(4-Carboxyphenylcarbamoyl)-4-hydroxy-2-oxo-1,2-dihydroquinoline-6-carboxylic acid]: the log k in [1] is given as 0.0081. This molecule had a half-maximal inhibitory concentration (IC50) in the data set on spinach chloroplasts of 380 µM. Moreover, the MIC (with Absidia corymbifera 272 (24h); with Absidia corymbifera 272 (48h); in data set [2] (24h); in data set [2] (48h); in data set [3] (24h); in data set [3] (48h)) was above 500 µM in each case. Further, the MIC in the data set with Candida glabrata 20/I (24h), with Candida glabrata 20/I (48h), in the data set on Candida krusei ATCC 6258 (24h), in the data set on Candida krusei ATCC 6258 (48h), in the data set with Candida tropicalis 156 (24h) and with Candida tropicalis 156 (48h) was above 500 µM in each case. The MIC in [4] (72h), in data set [4] (120h), in [5] (24h) and in data set [5] (48h) was above 500 µM throughout.

In data set [1], `CCOC(=O)c1c(O)c2ccccc2[nH]c1=O` [Compound 9, Ethyl 4-hydroxy-2-oxo-1,2-dihydroquinoline-3-carboxylate] came in with a log k of 0.4595. In the data set with spinach chloroplasts, the “OER inhibition effectiveness relative to compound 1” value is “approximately twice as effective as compound 1”. The same molecule came in with a concentration for half-maximal inhibition (IC50) in the data set on spinach chloroplasts of 494 µM. Further, the MIC (in the data set with Absidia corymbifera 272 (24h); in the data set with Absidia corymbifera 272 (48h); in data set [2] (24h); in [2] (48h); in [3] (24h); in data set [3] (48h)) was above 500 µM each time. Moreover, the MIC in the data set with Candida glabrata 20/I (24h), with Candida glabrata 20/I (48h), in the data set on Candida krusei ATCC 6258 (24h), with Candida krusei ATCC 6258 (48h), with Candida tropicalis 156 (24h) and in the data set on Candida tropicalis 156 (48h) was above 500 µM each time. Also, the MIC in [4] (72h), in [4] (120h), in data set [5] (24h) and in data set [5] (48h) was above 500 µM each time.

In turn, `Cc1ccc2[nH]c(=O)cc(O)c2c1` [Compound 2, 4-Hydroxy-6-methylquinolin-2(1H)-one] came in with a log k in data set [1] of 0.3307. Also, in the data set with spinach chloroplasts, it took 157 µM to reach half-maximal inhibition (IC50). Also, the MIC (with Absidia corymbifera 272 (24h); in the data set with Absidia corymbifera 272 (48h); in data set [2] (24h); in [2] (48h); in data set [3] (24h); in data set [3] (48h)) was above 500 µM in each case. For the same molecule, the MIC in the data set on Candida glabrata 20/I (24h), with Candida glabrata 20/I (48h), in the data set on Candida krusei ATCC 6258 (24h), with Candida krusei ATCC 6258 (48h), with Candida tropicalis 156 (24h) and with Candida tropicalis 156 (48h) was above 500 µM in each case. Further, the MIC in data set [4] (72h), in [4] (120h), in [5] (24h) and in [5] (48h) was above 500 µM each time.

For the origin of these results see publication PMC6253998, “Ring-substituted 4-Hydroxy-1H-quinolin-2-ones: Preparation and Biological Activity” (Molecules, 2009).
